Here are results for 32 compounds from patent EP0525360B1, “Novel phenylacetamide derivatives and processes for the preparation thereof” (KOREA RESEARCH INSTITUTE OF CHEMICAL TECHNOLOGY, priority 1991, dated 1993).

SMILES strings stand for the structures. Structures can show the parent of a compound that is named as a salt.

Holding throughout (type): in vivo
The subject of data set [1] is mice. As to the kind of experiment: Tail-flick test (radiant heat). Here is the method:
Radiant heat was applied using a beam of high-intensity light focused on a tail spot. The response time, defined as the interval between the onset of the stimulus and the tail flick, was measured electronically(to the nearest 0.1 second). The beam intensity was set at a level giving a mean control reaction time of 3.8±0.4 seconds. […] The percentage of inhibition was determined by the following equation: Inhibition(%) =(Reaction time of the treated group - Reaction time of the control group)/(Reaction time of the control group)x 100 [formula]
Background: In hot-plate and tail-flick tests a longer latency is read as antinociception.

The subject of data set [2] is KTC-ICR mice. The data set can be described thus: acetic acid induced writhing test. Conditions: Mus musculus; oral; 0.9% acetic acid i.p. 60 minutes later; writhings during 10 minutes; mice 20 to 25g; Examples 1 to 32. On the procedure:
(§1) The KTC-ICR mice derived from Charles River Breeding Laboratory in the United States and provided by Experimental Animal Laboratory of Korea Research Institute of Chemical Technology were used as test animals. […] They were tested after having been adjusted to the testing environment for a week. Food and water were given freely; and illumination was maintained on a 12-hour cycle.
(§2) Experiments were performed in two ways: that is, the acetic acid induced writhing test and the phenyl-1,4-benzoquinone(PBQ) induced writhing test.
Solutions for the acetic acid induced writhing test were prepared by dissolving one of the end products prepared in Examples […] in a saline solution containing 1% by weight of Tween 80 to have a concentration of 5mg/mℓ and diluting it serially with the saline solution. The test solutions were administered orally in a dose of 0.3mℓ per 30g of body weight, using the 5 ICR mice for each test. 60 minutes later, 0.9% acetic acid solution was administered intraperitoneally in a dose of 0.1mℓ per 30g of body weight. 3 minutes thereafter, the number of writhings generated during a period of 10 minutes due to the administration of acetic acid was measured. For comparison purpose, initially, saline solution alone was administered orally to the control group. 60 minutes thereafter, 0.9% acetic acid solution was administered intraperitoneally to the control group.
(§3) The number of writhings suffered by the test group was compared with that of the control group; and the analgesic effect was measured in terms of the percentage of inhibition of writhing(I. W.). I. W. (%) =(A - B)/(A)x 100 [formula] A : the number of writhings suffered by the control group, B : the number of writhings suffered by the test group.
(§4) These ED50 values for the test compounds are shown in the last column of Table 1.
Background: An intraperitoneal irritant provokes the stretching counted in writhing tests.

Data set [3] deals with KTC-ICR mice. As to the kind of experiment: phenyl-1,4-benzoquinone(PBQ) induced writhing test. The conditions noted are these: Mus musculus; oral; 0.02% PBQ i.p. 60 minutes later; writhings during 5 minutes; mice 10 to 15g; Examples 33 to 46. On the procedure:
as §1, §2
Alternatively, solutions for the PBQ induced writhing test were prepared by dissolving one of the products synthesized in Examples 33 to 46 in a mixture of Tween 80, alcohol and distilled water (1:5:94); and administered orally to the 5 ICR mice for each test in a dose of 0.3mℓ per 30g of body weight. 60 minutes later, 0.02% PBQ solution was administered intraperitoneally in a dose of 0.1mℓ per 30g of body weight of the test animals. 5 minutes thereafter, at the temperature of 40°C, the number of writhings occurred during a period of 5 minutes due to the PBQ solution administered was measured. For comparison, only the mixture of Tween 80, alcohol and distilled water was administered orally to the control group; and, after 60 minutes, the PBQ solution was administered intraperitoneally to the control group in the same manner as mentioned above.
as §3, §4

Data set [4] has as its system test animals. As to the kind of experiment: Behavior analysis (side-effect or toxicity scores). Also noted: key to Sedation / Dyspnoea / Vasodilation / Convulsion / Salivation / Urination: behavior score; higher number = greater side effects. The conditions noted are these: behavior score; for Convulsion / Salivation / Urination: normal value 0; for Dyspnoea / Ptosis / Sedation / Vasodilation: normal value 4. The text has this:
In order to monitor a harmful side-effect or toxicity of the compounds having the formula(I), various behavioral changes in the test animals were observed. […] The higher the number is, the greater the side effects are.

As to `COc1cc(CNC(=O)CCCC/C=C/C(C)C)ccc1O` [Capsaicin, trans-8-methyl-N-vanillyl-6-nonenamide, reference compound], in data set [1] (mouse, in vivo, 25 mg/kg), the “Inhibition(%)” value is on record as 90%.

On to `COc1cc(CC(=O)NCCCc2ccc(C)c(C)c2)ccc1OCCN` [Example 1-l-tartarate], for which the “Inhibition(%)” value in data set [1] (p. o., dose 1.25 mg/Kg) came to 50%; in data set [1] (p. o., dose 2.5 mg/Kg), 90%.

`Cc1ccc(CCCNC(=O)Cc2ccc(OCCN)cc2)cc1C` [Example 2]: the ED50 (in general, the dose at which the effect has come halfway, by size or by number of responders) in data set [2] turned out to be 3.98 mg/kg.

In data set [2], `Cc1ccc(CCCNC(=O)Cc2ccc(OCCN)c(F)c2)cc1C` [Example 3] returned an ED50 of 2.95 mg/kg.

As to `Cc1ccc(CCCNC(=O)Cc2ccc(OCCN)c(Cl)c2)cc1C` [Example 4], the median effective dose (ED50) in data set [2] came to 4.78 mg/kg.

In turn, `Cc1cccc(CCCNC(=O)Cc2ccc(OCCN)cc2)c1` [Example 6] gave a median effective dose (ED50) in data set [2] of 26.3 mg/kg.

With `Cc1cccc(CCCNC(=O)Cc2ccc(OCCN)c(F)c2)c1` [Example 7], in data set [2], the ED50 was found to be 2.3 mg/kg.

As for `Cc1cccc(CCCNC(=O)Cc2ccc(OCCN)c(Cl)c2)c1` [Example 8], the ED50 in data set [2] was found to be 42.6 mg/kg.

Compound `COc1cc(CC(=O)NCCCc2ccc(C)cc2)ccc1OCCN` [Example 9] came in with a median effective dose (ED50) in data set [2] of 1.73 mg/kg.

On to `Cc1ccc(CCCNC(=O)Cc2ccc(OCCN)cc2)cc1` [Example 10], for which the ED50 in data set [2] is 7.9 mg/kg.

On to `Cc1ccc(CCCNC(=O)Cc2ccc(OCCN)c(Cl)c2)cc1` [Example 12], for which the ED50 in data set [2] was found to be 4.7 mg/kg.

Consider `COc1cc(CC(=O)NCCCc2cc(C)cc(C)c2)ccc1OCCN` [Example 13], for which the median effective dose (ED50) in data set [2] was 4.6 mg/kg.

In data set [2], `Cc1cc(C)cc(CCCNC(=O)Cc2ccc(OCCN)cc2)c1` [Example 14] yielded an ED50 of 3.16 mg/kg.

For `Cc1cc(C)cc(CCCNC(=O)Cc2ccc(OCCN)c(Cl)c2)c1` [Example 16], the ED50 in data set [2] is 123 mg/kg.

The compound `COc1cc(CC(=O)NCCc2cc(C)cc(C)c2)ccc1OCCN` [Example 17] yielded a median effective dose (ED50) in data set [2] of 0.77 mg/kg.

`COc1cc(CC(=O)NCCCc2ccc(Cl)cc2)ccc1OCCN` [Example 18, N-{3-(4-chlorophenyl)propyl}-4-(2-aminoethoxy)-3-methoxyphenylacetamide] had a 50% effective dose (ED50) in data set [2] of 0.4 mg/kg.

`NCCOc1ccc(CC(=O)NCCCc2ccc(Cl)cc2)cc1` [Example 19, N-{3-(4-chlorophenyl)propyl}-4-(2-aminoethoxy)phenylacetamide] registered an ED50 in data set [2] of 0.03 mg/kg.

In data set [2], `NCCOc1ccc(CC(=O)NCCCc2ccc(Cl)cc2)cc1F` [Example 20, N-{3-(4-chlorophenyl)propyl}-4-(2-aminoethoxy)-3-fluorophenylacetamide] showed an ED50 of 0.07 mg/kg.

In turn, `NCCOc1ccc(CC(=O)NCCCc2ccc(Cl)cc2)cc1Cl` [Example 21, N-{3-(4-chlorophenyl)propyl}-4-(2-aminoethoxy)-3-chlorophenylacetamide] came in with an ED50 in data set [2] of 0.04 mg/kg.

Compound `COc1cc(CC(=O)NCCCc2ccc(Cl)c(Cl)c2)ccc1OCCN` [Example 24, N-{3-(3,4-dichlorophenyl)propyl}-4-(2-aminoethoxy)-3-methoxyphenylacetamide] displayed an ED50 in data set [2] of 0.66 mg/kg.

Consider `COc1cc(CC(=O)NCCCc2ccc3c(c2)OCO3)ccc1OCCN` [Example 25, N-{3-(3,4-methylenedioxyphenyl)propyl}-4-(2-aminoethoxy)-3-methoxyphenylacetamide], for which, in data set [2], the ED50 worked out at 0.8 mg/kg.

The compound `COc1cc(CC(=O)NCCCc2cccc(C(F)(F)F)c2)ccc1OCCN` [Example 26, N-{3-(3-trifluoromethylphenyl)propyl}-4-(2-aminoethoxy)-3-methoxyphenylacetamide] returned a 50% effective dose (ED50) in data set [2] of 1.54 mg/kg.

The compound `COc1cccc(CCCNC(=O)Cc2ccc(OCCN)c(OC)c2)c1` [Example 27, N-{3-(3-methoxyphenyl)propyl}-4-(2-aminoethoxy)-3-methoxyphenylacetamide] showed an ED50 in data set [2] of 1.25 mg/kg.

`COc1cc(CC(=O)NCCCc2cccc(OCc3ccccc3)c2)ccc1OCCN` [Example 28, N-{3-(3-benzyloxyphenyl)propyl}-4-(2-aminoethoxy)-3-methoxyphenylacetamide] gave a 50% effective dose (ED50) in data set [2] of 28.8 mg/kg.

As to `COc1cc(CC(=O)NCCCCc2cccc(C)c2)ccc1OCCN` [Example 30], the 50% effect level in data set [2] (ED50) was put at a dose of 1.54 mg/kg.

As to `Cc1cccc(CCCCNC(=O)Cc2ccc(OCCN)cc2)c1` [Example 31], the ED50 in data set [2] came out at 3.3 mg/kg.

Turning to `Cc1ccc(CCCCNC(=O)Cc2ccc(OCCN)c(F)c2)cc1C` [Example 32], the median effective dose (ED50) in data set [2] was 1.44 mg/kg.

`Cc1ccc(CCCNC(=O)Cc2ccc(OCCN)c(O)c2)cc1C` [Example 33, N-{3-(3,4-dimethylphenyl)propyl}-4-(2-aminoethoxy)-3-hydroxyphenylacetamide] yielded an ED50 in data set [3] of 0.49 mg/kg. In data set [4] (dose 0.2mg/Kg), this compound came in with a Convulsion of 0, a Salivation of 0, a Urination of 0 and a Dyspnoea of 4. Besides, in data set [4] (dose 0.2mg/Kg), the Ptosis amounted to 4, the Sedation was determined as 4 and the Vasodilation stood at 4. In data set [4] (dose 0.6mg/Kg), this compound yielded a Convulsion of 0, a Salivation of 0, a Urination of 0 and a Dyspnoea of 4. In data set [4] (dose 0.6mg/Kg), the Ptosis is listed as 4, the Sedation is on record as 5 and the Vasodilation is listed as 4. In data set [4] (dose 2.0mg/Kg), this compound showed a Convulsion of 0, a Salivation of 0, a Urination of 0 and a Dyspnoea of 5. In data set [4] (dose 2.0mg/Kg), this compound came in with a Ptosis of 6, a Sedation of 7 and a Vasodilation of 4.

Consider `NCCOc1ccc(CC(=O)NCCCc2ccc(F)cc2)cc1N` [Example 40-HCl], for which the “Inhibition(%)” value in data set [1] (p. o., dose 50 mg/Kg) was determined as 67%.

For `NCCOc1ccc(CC(=O)NCCCc2cccc(C(F)(F)F)c2)cc1N` [Example 42, N-{3-(3-trifluoromethylphenyl)propyl}-4-(2-aminoethoxy)-3-aminophenylacetamide], the “Inhibition(%)” value in data set [1] (p. o., dose 100 mg/Kg) is reported as 40%. In addition, in data set [4] (dose 11.1mg/Kg), the Convulsion came to 0, the Salivation is listed as 0, the Urination was 0 and the Dyspnoea is listed as 4. In data set [4] (dose 11.1mg/Kg), this compound returned a Ptosis of 4, a Sedation of 4 and a Vasodilation of 4. Moreover, in data set [4] (dose 33.3mg/Kg), the Convulsion amounted to 0, the Salivation turned out to be 0, the Urination was determined as 0 and the Dyspnoea stood at 4. Besides, in data set [4] (dose 33.3mg/Kg), the Ptosis is recorded as 4, the Sedation came out at 4 and the Vasodilation stood at 4. Also, in data set [4] (dose 100mg/Kg), the Convulsion came out at 0, the Salivation is on record as 0, the Urination was found to be 0 and the Dyspnoea was 4. In addition, in data set [4] (dose 100mg/Kg), the Ptosis turned out to be 7, the Sedation turned out to be 7 and the Vasodilation stood at 4.

On to `Cc1ccc(CCCNC(=O)Cc2ccc(OCCN)c([N+](=O)[O-])c2)cc1C` [Example 43, N-{3-(3,4-dimethylphenyl)propyl}-4-(2-aminoethoxy)-3-nitrophenylacetamide], for which it took a dose of 22.5 mg/kg to reach the 50% effect level in data set [3] (ED50).

`CN1C(C(=O)Nc2ccccn2)=C(O)c2ccccc2S1(=O)=O` [Piroxicam, reference compound]: the “Inhibition(%)” value in data set [1] (p. o., dose 100 mg/Kg) was 0%.
